Source: ChEMBL document CHEMBL1127918, “The role of peptide bond in chemotactic for-met-leu-phe-ome focused by depsipeptide analogs” (1994)
Where a SMILES comes first, the peptide text is derived from it. [ ]: non-standard residue; d: D form. The star is where a group is joined. PhLac = O=C(O)[C@@H](O)Cc1ccccc1; NHBn = c1ccc(CN*)cc1; For = O=C*

What was measured:
Format in all cases: functional
Homo sapiens [1] = species on record: Homo sapiens; experiment: (§1) Superoxide anion release expressed as n moles of superoxide anion/2E6 neutrophils/5 min
Homo sapiens [2] = species on record: Homo sapiens; experiment: lysozyme release expressed as percentage of total enzyme content released by 0.1% Triton X-100
Homo sapiens [3] = species on record: Homo sapiens; experiment: as §1; remark: listed apart in the source
Homo sapiens [4] = species on record: Homo sapiens; experiment: Chemotactic activity was expressed as percentage of random locomotion human neutrophils
Homo sapiens [5] = species on record: Homo sapiens; experiment: (§2) Chemotactic activity was expressed as percentage of random locomotion
Homo sapiens [6] = species on record: Homo sapiens; experiment: as §2; remark: listed apart in the source
Homo sapiens [7] = species on record: Homo sapiens; experiment: as §1; remark: listed apart in the source
Homo sapiens [8] = species on record: Homo sapiens; experiment: Chemotactic activity was expressed as percentage of random locomotion of human neutrophils
Homo sapiens [9] = species on record: Homo sapiens; experiment: as §2; remark: listed apart in the source

COC(=O)[C@H](Cc1ccccc1)NC(=O)[C@H](CC(C)C)OC(=O)[C@H](CCSC)NC=O
Superoxide anion release (Homo sapiens [1]): 0 | Log [-5] (Homo sapiens [2]): 10 | Log [-6] (Homo sapiens [2]): 12 | Log [-7] (Homo sapiens [2]): 10 | Log [-8] (Homo sapiens [2]): 11 | Superoxide anion release (Homo sapiens [3]): 0 | Log [-9] (Homo sapiens [4]): 11 | Chemotactic activity (% of random locomotion) (Homo sapiens [5]): 9 | Chemotactic activity (% of random locomotion) (Homo sapiens [6]): 13 | chemotactic activity (% of random locomotion) at 10^-8 M (Homo sapiens [6]): 8 | Superoxide anion release (Homo sapiens [7]): 0 | Superoxide anion release at 10^-8 M (Homo sapiens [7]): 0 | Chemotactic activity at 10^-10 M (% of random locomotion) (Homo sapiens [8]): 0 | Chemotactic activity (% of random locomotion) (Homo sapiens [9]): 10

COC(=O)[C@H](Cc1ccccc1)NC(=O)[C@H](CC(C)C)NC(=O)[C@H](CCSC)NC=O
Superoxide anion release (Homo sapiens [1]): 43 | Log [-5] (Homo sapiens [2]): 62 | Log [-6] (Homo sapiens [2]): 67 | Log [-7] (Homo sapiens [2]): 59 | Log [-8] (Homo sapiens [2]): 54 | Superoxide anion release (Homo sapiens [3]): 37 | Chemotactic activity (% of random locomotion) (Homo sapiens [5]): 62 | Chemotactic activity (% of random locomotion) (Homo sapiens [6]): 85 | chemotactic activity (% of random locomotion) at 10^-8 M (Homo sapiens [6]): 105 | Superoxide anion release (Homo sapiens [7]): 44 | Superoxide anion release at 10^-8 M (Homo sapiens [7]): 7 | Chemotactic activity at 10^-10 M (% of random locomotion) (Homo sapiens [8]): 105 | Log [-9] (Homo sapiens [8]): 115 | Chemotactic activity (% of random locomotion) (Homo sapiens [9]): 36

CSCC[C@H](NC=O)C(=O)N[C@@H](CC(C)C)C(=O)O[C@@H](Cc1ccccc1)C(=O)NCc1ccccc1 (For-Met-Leu-[PhLac]-NHBn)
Superoxide anion release (Homo sapiens [1]): 24 | Log [-5] (Homo sapiens [2]): 40 | Log [-6] (Homo sapiens [2]): 38 | Log [-7] (Homo sapiens [2]): 35 | Log [-8] (Homo sapiens [2]): 24 | Superoxide anion release (Homo sapiens [3]): 32 | Chemotactic activity (% of random locomotion) (Homo sapiens [5]): 55 | Chemotactic activity (% of random locomotion) (Homo sapiens [6]): 51 | chemotactic activity (% of random locomotion) at 10^-8 M (Homo sapiens [6]): 51 | Superoxide anion release (Homo sapiens [7]): 14 | Superoxide anion release at 10^-8 M (Homo sapiens [7]): 8 | Chemotactic activity at 10^-10 M (% of random locomotion) (Homo sapiens [8]): 62 | Log [-9] (Homo sapiens [8]): 54 | Chemotactic activity (% of random locomotion) (Homo sapiens [9]): 20

COC(=O)[C@H](Cc1ccccc1)NC(=O)C(C)(N)COC(=O)[C@H](CCSC)NC=O (stereo partly specified)
Superoxide anion release (Homo sapiens [1]): 0 | Log [-5] (Homo sapiens [2]): 15 | Log [-6] (Homo sapiens [2]): 13 | Log [-7] (Homo sapiens [2]): 11 | Log [-8] (Homo sapiens [2]): 15 | Superoxide anion release (Homo sapiens [3]): 0 | Chemotactic activity (% of random locomotion) (Homo sapiens [5]): 7 | Chemotactic activity (% of random locomotion) (Homo sapiens [6]): 14 | chemotactic activity (% of random locomotion) at 10^-8 M (Homo sapiens [6]): 14 | Superoxide anion release (Homo sapiens [7]): 0 | Superoxide anion release at 10^-8 M (Homo sapiens [7]): 0 | Chemotactic activity at 10^-10 M (% of random locomotion) (Homo sapiens [8]): 10 | Log [-9] (Homo sapiens [8]): 9 | Chemotactic activity (% of random locomotion) (Homo sapiens [9]): 4
